Results on one compound are retold here after article PMC8282797, “Strictly regulated agonist-dependent activation of AMPA-R is the key characteristic of TAK-653 for robust synaptic responses and cognitive improvement” (Scientific Reports, 2021).

“Also recorded” adds a separate entry of the source.

One data set addresses GluA2o LBD (Homo sapiens, UniProt P42262). The data set can be described thus: SPA displacement of [3H]-HBT1 from His-tagged GluA2o LBD. Conditions: 40 nM [3H]-HBT1, 100 μM glutamate, read-out: IC50, inhibition of binding between [3H]-HBT1 and His-LBD. The source says:
We previously reported that structural interference at Ser750 in the channel-closed state of GluA2o LBD might be involved in the molecular mechanisms underlying the lower agonistic effect of AMPA-R potentiators with dihydropyridothiadiazine 2,2-dioxide derivatives and discovered TAK-137, 9-(4-phenoxyphenyl)-3,4-dihydropyrido[2,1-c][1,2,4]thiadiazine 2,2-dioxide (Fig. 1A)[16]. […] TAK-653 bound to the intradimer interface formed by the ligand binding core (Fig. 1B). […] Binding affinity of TAK-653 to the GluA2o LBD was measured by a scintillation proximity assay (SPA) using [^3H]-HBT1, a radio-labeled LBD-binding AMPA-R potentiator, and a His-tagged GluA2o LBD protein (His-LBD)[21]. […] Binding of [^3H]-TAK-653 to His-LBD was also measured by SPA.
The SPA assays were performed as previously described, with some modifications. […] Radioactivity derived from the bound radio ligand was measured using a microplate scintillation counter (TopCount NXT, PerkinElmer Inc.).
In general terms: Displacement assays read how much labelled ligand stays bound in the presence of the test substance.

Data set [1] can be described thus: Pharmacokinetics in monkeys. The data set is classed as in vivo. The following applies: monkey, plasma, po, 0.03 mg/kg.
Data set [2] relates to GluA1-4i and TARP γ-2 or GluA1-4o and TARP γ-2. The data set can be described thus: Ca2+ influx assay, AMPA-R subunit selectivity. The class given is cell-based, human. Here is the method: Human GluA1/flip and human stargazin co-expressing CHO cells were plated at 3×10^4 cells/well in 96-well Black Clear plate (Corning Incorporated, Corning, NY). For subunit selectivity study, human AMPA-Rs (GluA1-4i, GluA1-4o and GluA1i mutants) and human TARPs γ2 co-expressing CHO cells were plated. For evaluation of the species difference, rat GluA1/flip expressing CHO cells were plated. For mutant channels, Human GluA1i S743A mutant was generated by In-Fusion HD Cloning Kit (Takara Bio Inc., Kusatsu, Japan) according to manufacturer's protocol. Each hGluA1i mutant vector was transiently introduced to CHO cells by Gene Pulser II Electroporation System (Bio-Rad Laboratories, Inc., Hercules, CA) and incubated for 6 h in 5% CO2 at 37°C. Then, cells were harvested and plated. These cells were seeded at 3×10^4 cells/well in 96-well Black Clear plate and incubated for 24 h in 5% CO2 at 37°C. […] Relative increases of intracellular Ca^2+ levels by compounds in the presence and absence of 3 mM L-glutamate were monitored for 3 min by fluorometric imaging plate reader (CellLux, Perkin Elmer Life and Analytical Sciences, Inc., Shelton, CT). Activity of compound was defined as integration value of fluorescence value of each detection point. […] EC50 values were calculated by logistic regression analysis. […]

Another data set has as its system cynomolgus monkeys. The data set can be described thus: Delayed match-to-sample (DMTS) task. Conditions: 0.06 mg/kg, p.o., 6 h prior to testing. The data set is classed as in vivo, cynomolgus monkey (Macaca fascicularis). Here is the method:
DMTS tasks were performed using 4–6 years old male cynomolgus monkeys (Macaca fascicularis) weighing 4–6 kg as previously described, using a Cambridge Neuropsychological Test Automated Battery (CANTAB) system (CeNes, Cambridge, UK). Monkeys were maintained at 80% of free-feeding body weight throughout the experiment. Details are described in the Supplementary Information.
The experiment was performed using 4-6 years old male cynomolgus monkeys (Macaca fascicularis) weighing 4-6 kg. Monkeys were maintained at 80% of free-feeding body weight throughout the experiment. Four monkeys were trained to perform DMTS task using a Cambridge Neuropsychological Test Automated Battery (CANTAB) system (CeNes, Cambridge, UK) (Weed et al., 1999). Briefly, a trial was initiated by presentation of an image of a sample object on the screen. The monkey had to touch this object on the screen within 30 s. Then, the sample object was diminished from the screen, and a variable delay (0, 4, 8, and 16 s) was ensured. After the delay, the sample object was re-presented together with three other objects. The monkey had to choose the sample object from the four objects and a collect choice was reinforced by the food reward. The ITI was 5 s and one session consisted of 96 trials (24 trials of each delay of 0, 4, 8, and 16 s). […] The correct responses were recorded for all trials during test sessions. […]

Chain of GluA2o LBD (P42262 with tags, fused parts or gaps): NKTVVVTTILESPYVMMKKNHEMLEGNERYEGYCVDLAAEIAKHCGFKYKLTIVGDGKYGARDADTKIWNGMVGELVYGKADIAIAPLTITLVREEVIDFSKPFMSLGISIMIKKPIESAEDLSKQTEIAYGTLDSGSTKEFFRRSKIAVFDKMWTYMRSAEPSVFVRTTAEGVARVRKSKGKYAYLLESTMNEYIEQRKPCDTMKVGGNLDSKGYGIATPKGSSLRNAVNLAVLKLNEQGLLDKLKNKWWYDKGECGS

As usually defined, the IC50 is the concentration needed to halve the response being measured. A word on the Tmax: it is the time from dosing to the highest level. The term half-life denotes the time in which the quantity being followed falls by half. Lower therefore signals fast loss. As to `CC1=CN2CCS(=O)(=O)N=C2C(c2ccc(OC3CCCCC3)cc2)=N1` [TAK-653, 9-[4-(Cyclohexyloxy)phenyl]-7-methyl-3,4-dihydropyrazino[2,1-c][1,2,4]thiadiazine 2,2-dioxide], the IC50 on GluA2o LBD is 260 nM. Also, in data set [1], the Tmax is 8 h and the half-life is 9.4 ± 3.8 h. In addition, the “Subunit selectivity for homomeric AMPA-R” value in data set [2] is on record as “did not show prominent subunit selectivity”. For the same compound, in the data set with cynomolgus monkeys, the “DMTS accuracy at 16-s delay interval” value is given as “significantly ameliorated; also recorded: significantly increased”.
